One assay concerns healthy volunteers. Description: Effect on blood glucose level in normal people. The format is in vivo, human. Conditions: for effect on blood glucose level in normal people / Blood glucose level after administration: 200 mL oral; for Blood glucose level after administration / Blood glucose level before administration: individual healthy volunteers; for Blood glucose level before administration: fasting baseline. As to the method:
Six healthy volunteers were fasted overnight and then were measured for fasting blood glucose. Thereafter, they were orally administered with 200 mL of the solution of Composition 1, or 200 mL of the solution of trehalose (0.15 g/mL), or 200 mL of the solution of validamycin (0.3 mg/mL), or 200 mL of distilled water, as stated in Table 3.2. The blood glucose level in every volunteer was tested before administration and 30 min, 60 min and 120 min post administration.

For another assay, the system named is human skin. The assay can be described thus: Determination of moisture content in human skin. The class given is in vivo. An excerpt: 1. Subjects and Materials
One hundred and ten people were selected from the volunteers who participating in this test. They were females at the age of 30 to 55 with skin moisture content below 12%.
Solutions of Composition 1 to 7 prepared in this example were used except that the sterile water for medical use was replaced with warm water.
By skin moisture content, the subjects were randomly divided into 11 groups, i.e., a blank control group, administration groups 1 to 7 and negative control groups 1 to 3. The subjects in administration groups 1 to 7 respectively took 200 mL of the solution of Compositions 1 to 7 twice a day at 9 am and 9 pm while the subjects in the blank control group took 200 mL of warm water at the same time. In addition, the subjects in negative control groups 1 to 3 respectively took 200 mL of the solution of trehalose (0.15 g/mL), 200 mL of the solution of validamycin (0.3 mg/mL) and 200 mL of the solution of algal polysaccharides (0.15 g/mL). The administration lasted for 30 days. Skin moisture content was determined before administration and after administration. The determination was conducted in a spacious and well ventilated examination room. When the subjects were calm, the location to be determined was cleaned with sterile cotton ball soaked with distilled water. Fifteen minutes after the location was wiped dry, the skin moisture content was determined by skin moisture tester under the trademark of “KAKUSAN”.

The test system of the next assay is diabetic mice. Description: Reduction of blood glucose in streptozotocin diabetic mice. The format is in vivo. Conditions: for Blood glucose level at different time points after administration: 13.3 mL/kg intragastric at 9 am and 9 pm every day; for Blood glucose level before administration: baseline, STZ diabetic mice. As to the method:
Male ICR mice, 8 weeks old, 20±2 g in body weight, were purchased from Beijing HFK Bioscience Co., Ltd.
Also, the solutions of Compositions 1-7 were used in this Example.
I. Modeling: Before experiment started, a 0.1 mol/L sodium citrate buffer (pH4.5) was prepared. It was sterilized in an autoclave and then stored in a refrigerator at 4° C. Before the modeling began, this sodium citrate buffer was used to freshly prepare a 10 mg/mL solution of streptozotocin (STZ) in an ice bath. The mice were fed normally for 3 days, and then they were intraperitoneally administered with the freshly prepared STZ solution at a dose of 45 mg/kg for 5 consecutive days once a day.
II. Treatment: After the model was successfully established, the mice had not been administered with streptozotocin solution were arranged in a group, i.e., the normal group, and normally fed. The diabetic mice were randomly divided into 11 groups depending on blood glucose level, the groups being a model group, administration groups 1 to 7 and negative control groups 1 to 3. The mice in administration groups 1 to 7 were respectively intragastrically given the solution of Composition 1 to 7 prepared in this Example at a dose of 13.3 mL/kg body weight. The mice in the model group were intragastrically given sterile water for medical use at a dose of 13.3 mL/kg body weight. The mice in negative control groups 1 to 3 were respectively intragastrically administered with the solution of trehalose (0.15 g/mL), the solution of validamycin (0.3 mg/mL) and the solution of algal polysaccharides (0.15 g/mL) at a dose of 13.3 mL/kg body weight. The administration was conducted at 9 am and 9 pm every day, and blood glucose level was checked by Roche blood glucose meter once every other week for 5 weeks.

In the next assay the test system is normal mice. Description: Enterocinesia in normal mice (carbon powder movement in small intestine). The format is in vivo. Conditions: 13.3 mL/kg intragastric; for Movement distance of carbon powder: carbon powder 20 to 30 min later, killed 15 to 20 min after; for Movement distance of carbon powder/full length of small intestine: normal mice. As to the method:
Male ICR mice, 8 weeks old and 20±2 g in body weight, were purchased from Beijing HFK Bioscience Co., Ltd.
Solutions of Compositions 1 to 7 were used in the experiment.
A suspension of carbon powder of 0.1 g/mL was also used. In particular, 1 g of carbon powder was added to and then suspended evenly in 10 mL of normal saline.
After the mice were fed normally for 3 days, they were given no food but water for 18-24 h. By the body weight, the mice were randomly divided into 11 groups, i.e., a blank control group, administration groups 1 to 7 and negative control groups 1 to 3. The mice in administration groups 1 to 7 were respectively intragastrically administered with the solutions of Compositions 1 to 7 at a dose of 13.3 mL/kg body weight while the mice in the blank control group were intragastrically given sterile water for medical use at a dose of 13.3 mL/kg body weight. The mice in negative control groups 1 to 3 were respectively intragastrically administered with the solution of trehalose (0.15 g/mL), the solution of validamycin (0.3 mg/mL) and the solution of algal polysaccharide (0.15 g/ml) at a dose of 13.3 mL/kg body weight. At 20 to 30 min post administration, all mice were intragastrically given the suspension of carbon powder at a dose of 0.2 mL/10 g body weight. At 15 to 20 min post the administration of the carbon powder suspension, the mice were killed by cervical vertebrae dislocation and then were quickly dissected to separate the small intestines. The movement distance of the carbon powder (the distance measured from the carbon powder at the forefront to the end of the duodenum closer to heart) and the full length of the small intestine were measured.

The mark [1] stands for this setting: after administration, 200 mL twice a day for 30 days.

Values joined by “and” are separate entries in the source; they are usually repeats but may differ in a detail not shown here. Equal values may be shown once.

The source of these data is US9937198B2, “Multi-functional composition and preparation method and application thereof” (Suzhou Sciscape Bio-Pharmaceutical Technology Co., Ltd., priority 2013, dated 2018).

As to `OC[C@H]1O[C@H](O[C@H]2O[C@H](CO)[C@@H](O)[C@H](O)[C@H]2O)[C@H](O)[C@@H](O)[C@@H]1O` [trehalose], the “effect on blood glucose level in normal people” value with healthy volunteers is listed as “significantly raised blood glucose level”. The entries for the “Blood glucose level after administration” value in the assay on healthy volunteers (30 min), in the assay with healthy volunteers (60 min) and with healthy volunteers (120 min) were 9.3 mmol/L, 8.4 mmol/L and 7.1 mmol/L, respectively. Besides, the “Blood glucose level before administration” value with healthy volunteers was found to be 7.0 mmol/L; with diabetic mice, 18.40 ± 2.07 mmol/L. For the same compound, the Skin moisture content in the assay with human skin (setting [1]) is on record as 8.52 ± 0.55%; in the assay on human skin (before administration) it was 8.55 ± 0.68%. The “Blood glucose level at different time points after administration” value in the assay on diabetic mice (1 week) came out at 22.15 ± 2.14 mmol/L; in the assay on diabetic mice (2 weeks), 24.50 ± 2.35 mmol/L; in the assay with diabetic mice (3 weeks) it was 25.33 ± 2.15 mmol/L; in the assay on diabetic mice (4 weeks), 26.47 ± 2.12 mmol/L; in the assay with diabetic mice (5 weeks), 27.16 ± 1.01 mmol/L. In the assay with normal mice, the “Movement distance of carbon powder” value is 33.6 ± 3.40 cm. Moreover, the “Movement distance of carbon powder/full length of small intestine” value in the assay on normal mice is 71.9 ± 8.20%.
On to `OCC1=C[C@H](N[C@H]2C[C@H](CO)[C@@H](O[C@@H]3O[C@H](CO)[C@@H](O)[C@H](O)[C@H]3O)[C@H](O)[C@H]2O)[C@H](O)[C@@H](O)[C@@H]1O` [validamycin], for which, in the assay with healthy volunteers, the “effect on blood glucose level in normal people” value is “had not effect on the blood glucose level”. Besides, the “Blood glucose level after administration” value was 6.3 mmol/L and 6.7 mmol/L with healthy volunteers (30 min, listed as Solution of validamycin); 6.2 mmol/L and 6.6 mmol/L in the assay with healthy volunteers (60 min, listed as Solution of validamycin); 5.9 mmol/L and 5.3 mmol/L in the assay with healthy volunteers (120 min, listed as Solution of validamycin). Besides, the “Blood glucose level before administration” value was 6.0 mmol/L and 5.3 mmol/L in the assay with healthy volunteers (listed as Solution of validamycin); 18.27 ± 2.13 mmol/L in the assay with diabetic mice. Besides, the Skin moisture content in the assay on human skin (setting [1]) came out at 8.35 ± 0.47%; with human skin (before administration) it was 8.21 ± 0.98%. For the same compound, the “Blood glucose level at different time points after administration” value with diabetic mice (1 week) is given as 20.20 ± 2.11 mmol/L; with diabetic mice (2 weeks) it was 22.51 ± 2.28 mmol/L; in the assay with diabetic mice (3 weeks), 23.57 ± 2.06 mmol/L; with diabetic mice (4 weeks) it was 23.57 ± 1.07 mmol/L; with diabetic mice (5 weeks), 24.01 ± 1.25 mmol/L. Further, the “Movement distance of carbon powder” value in the assay with normal mice worked out at 29.3 ± 2.34 cm. Besides, in the assay with normal mice, the “Movement distance of carbon powder/full length of small intestine” value is 66.3 ± 6.57%.
